# Assay results published in patent US9198416B2, “Method for enhancing drought tolerance in plants” (Plant Response Biotech S.L., priority 2013, dated 2015).
# Legend:
# Format in all cases: in vivo
# 'TAO700' corn [1] = test: Corn total chlorophyll content under limited water irrigation; details: 30% water
# Method: (§1) For each wilting or limited water experiment 480 seeds (of either pepper, barley, tomato, cucumber or corn) were sown, producing 384 plants in 512 cm^3 pots (4 plants per pot). Plants were grown under chamber conditions at 21° C. for 3 weeks. Then, the plants were moved to a greenhouse, where average temperature was 25° C. to 28° C. Treatments as described herein were done when the plants had two extended leaves and the next pair of leaves were coming up.
# (§2) After the treatments described above, the plants were not watered until the pots completely lost their moisture, taking about 4 to 8 days depending on the season, at which point the plants were extremely wilted for the extreme drought experiments. The plants were then watered once with solutions containing the different amounts of TMAO di-hydrate described above (0.1 g/L, 1.0 g/L or 5.5 g/L) or just water, after which the plants were left to lose their moisture completely again for three consecutive cycles of watering after wilting. […] The plant survival rate was recorded and analyzed for the “extreme drought” experiments in which plants were allowed to wilt severely before watering, while the stem length was recorded as analyzed for the limited water experiments in which the plants are watered with 30% of the water that the plant requires. […]
# 'FAO700' corn = test: Corn number of green leaves under limited water irrigation; details: 30% water, 1 g/L (Table 11 rows 3 and 4)
# Method: as §1, §2
# Moneymaker tomato = test: Tomato plant survival under extreme drought; details: higher test rates, both treatments (sprayed or watered)
# Method: as §1
# Twelve (12) pots (containing 48 plants) were irrigated with 40 ml of either: water, 0.1 g/L TMAO di-hydrate solution, 1.0 g/L TMAO di-hydrate solution, or 5.5 g/L TMAO di-hydrate solution. […]
# (§3) After the treatments described above, the plants were not watered until the pots completely lost their moisture, taking about 4 to 8 days depending on the season, at which point the plants were extremely wilted for the extreme drought experiments. […] The plant survival rate was recorded and analyzed for the “extreme drought” experiments in which plants were allowed to wilt severely before watering, while the stem length was recorded as analyzed for the limited water experiments in which the plants are watered with 30% of the water that the plant requires. […]
# 'Bomi' barley = test: Barley dry weight under drought / limited water irrigation; details: drought growing conditions
# Method: as §1
# Twelve (12) pots (containing 48 plants) were irrigated with 40 ml of either: water, 0.1 g/L TMAO di-hydrate solution, 1.0 g/L TMAO di-hydrate solution, or 5.5 g/L TMAO di-hydrate solution. Another set of 12 pots containing 48 plants were sprayed with 40 ml of either water (3.3 ml in average per pot), a solution containing 0.1 g/L TMAO di-hydrate solution, 1.0 g/L TMAO di-hydrate, or 5.5 g/L TMAO di-hydrate. All pots were also watered with 40 ml of water. The sprayed plants were watered with the same volume of water as the “irrigated plants) The pots were located on plastic glass to maintain constant moisture and to avoid liquid spillage during watering. Trays containing the pots were located on greenhouse tables. The distribution of the trays on the table and the position on the pots in the tray was changed every week to avoid position effects.
# as §3
# [2] = system: tomato 'Moneymaker' seeds; test: Tomato seed germination under PEG-6000 simulated drought; details: 10 days
# Method: In order to determine the drought or water stress tolerance after seed treatments with TMAO di-hydrate and germination in the presence of TMAO di-hydrate, tomato ‘Moneymaker’ seeds were surface sterilized for 3 minutes in ethanol 70%, then rinsed twice and finally included in a pre-treatment solution of 0.1 g/L TMAO di-hydrate solution (or just water) under shaking for 3 hours. Then, they were rinsed and included in the germination plates under sterile conditions. Polyethylene glycol (PEG-6000) was added to the germination medium (Murashige and Skoog salts medium) at 152 and 182 g/L. The increasing amount of PEG reduces ψ (hydric potential) values, simulating drought conditions for germination. Each germination plate had at least 30 seeds, and each treatment/pretreatment plate was replicated five times (150 seeds per treatment/pretreatment). Seeds were left to germinate for 10 days under dark conditions in a culture chamber (21° C. light and 20° C. night, 65% humidity). Then, germinated seeds were recorded by visual inspection and data analysis was performed using Statgraphics software.
# TMAO di-hydrate applied exogenously increases germination both in pre-treatment of the seeds and as an additive to the medium. Tomato ‘Moneymaker’ seeds were sown, grown and treated as described above.
# 'Rio Grande' tomato = test: Tomato fruit production under limited water irrigation; details: 30% water irrigation, 1 g/L TMAO spray every 4 weeks
# Method: as §1, §2
# 'TAO700' corn [3] = test: Corn number of grains per cob under limited water irrigation; details: 30% water, 1 g/L (Table 13 row 4)
# Method: as §1, §2
# [4] = TMAO content in pepper leaves by NMR after TMAO spray; details: 1 g/l spray
# Method: as §1
# (§4) TMAO content in plants was determined by harvesting three leaves per treatment and freezing them in liquid nitrogen before the NMR determination. At least three independent plants were treated per experiment.
# (§5) TMAO accumulates in pepper and barley when applied exogenously. ‘Murano’ pepper seeds and ‘Bomi’ barley seeds were sown and grown as described above. Control plants (six weeks old) were sprayed with water and pepper treated plants were sprayed with 1 g/l of TMAO while barley plants were sprayed with 1 g/l of TMAO formulated with 0.1% of C8-C10 Alkylpolysaccharide. Leaves were harvested and TMAO was determined by NMR. The percentage of TMAO increase compared to untreated controls was determined for each time point. TMAO levels increase in pepper and barley with exogenous treatment of TMAO at 1 g/l to higher levels than drought treatment and furthermore, the TMAO levels are high up to 40 days post spray in pepper.
# [5] = TMAO content in barley leaves by NMR after TMAO spray; details: 1 g/l spray formulated with 0.1% C8-C10 Alkylpolysaccharide, 1 day post spray
# Method: as §1, §4, §5
# [6] = system: 'Sabrina', 'Candonga' and 'Fortuna' variety strawberry plants; test: Strawberry fruit production under normal conditions (trade-off test); details: no water stress; for Strawberry fruit production % Control: 1 g/L spray every 4 weeks for 3 months
# Method: In order to determine the plant fruit productivity under normal conditions, ‘Sabrina’, ‘Candonga’ and ‘Fortuna’ variety strawberry plants were grown under standard strawberry production conditions and 120 plants of each variety per treatment (where the treatment was a Control comprising standard watering or 1 g/L of TMAO spray every four weeks) were analyzed. Plants were located in four (4) different positions for each group of 30 plants from the same treatment. Fruits were harvested from individual plants and total weight was determined for each plant.
# Fruit yield was determined in ‘Sabrina’, ‘Candonga’ and ‘Fortuna’ strawberry plants treated with 1 g/l of TMAO di-hydrate or water as described above in order to evaluate the trade-off costs of the treatment with no water stress.
# 'Murano' pepper = test: Pepper plant survival under extreme drought; details: 10 g/L and 1 g/L sprayed, irrigation with water (as worded)
# Method: as §1
# Twelve (12) pots (containing 48 plants) were irrigated with 40 ml of either: water, 0.1 g/L TMAO di-hydrate solution, 1.0 g/L TMAO di-hydrate solution, or 5.5 g/L TMAO di-hydrate solution. […] All pots were also watered with 40 ml of water. […]
# as §3
smiles,measurement,setting,value
"C[N+](C)(C)[O-] [TMAO, Trimethylamine N-oxide]",TOTAL CHLOROPHYL CONTENT,'TAO700' corn [1]; 1 g/L TMAO seed treatment,0.8977 ± 0.195
same,TOTAL CHLOROPHYL CONTENT,'TAO700' corn [1]; 1 g/L TMAO spray,0.7278 ± 0.076
same,increase in green leaf production over untreated plants with 30% irrigation,'FAO700' corn,47%
same,shoot dry mass compared with untreated plants,Moneymaker tomato,clear increase
same,AVERAGE DRY WEIGHT,"'Bomi' barley; initial treatment 1 g/L sprayed solution, irrigations water",1205.4 ± 60.37 mg
same,AVERAGE DRY WEIGHT,"'Bomi' barley; initial treatment 1 g/L watered solution, irrigations water",1371.4 ± 66.13 mg
same,AVERAGE DRY WEIGHT,"'Bomi' barley; irrigations 1 g/L solution, initial treatments pooled",1216.1 ± 33.44 mg
same,GERMINATION RATE,"[2]; PEG 152 g/L (ψ −0.2564), 0.1 g/L in the germination medium",71.09 ± 4.26%
same,GERMINATION RATE,"[2]; PEG 152 g/L (ψ −0.2564), seed pre-treatment 0.1 g/L solution 3 hours",70.62 ± 4.62%
same,GERMINATION RATE,"[2]; PEG 182 g/L (ψ −0.3676), 0.1 g/L in the germination medium",45.00 ± 3.20%
same,GERMINATION RATE,"[2]; PEG 182 g/L (ψ −0.3676), seed pre-treatment 0.1 g/L solution 3 hours",18.53 ± 3.20%
same,AVERAGE WEIGTH (grams/fruit),'Rio Grande' tomato,76.73 ± 17.67 grams/fruit
same,increase in total number of grains per corn cob compared to 100% irrigation,'TAO700' corn [3],2%
same,TMAO accumulation % Control,"[4]; 1 day post spray, vs water-sprayed control",529 % Control
same,TMAO accumulation % Control,[4]; 10 days post spray,373 % Control
same,TMAO accumulation % Control,[4]; 20 days post spray,286 % Control
same,TMAO accumulation % Control,[4]; 30 days post spray,135 % Control
same,TMAO accumulation % Control,[4]; 40 days post spray,213 % Control
same,TMAO accumulation % Control,[5],822 % Control
same,difference in fruit production vs water,"[6]; 1 g/l, three strawberry varieties",no significant difference
same,Strawberry fruit production % Control,[6]; Candonga,102 % Control
same,Strawberry fruit production % Control,[6]; Fortuna,101 % Control
same,Strawberry fruit production % Control,[6]; Sabrina,106 % Control
same,Strawberry fruit production % Control,[6]; Total of the three varieties,105 % Control
same,plant survival,'Murano' pepper,83.3%
